# Experimental data: patent US6358885B1, “Substituted phenylheterocyclic herbicides” (Mississippi State University, priority 1992, dated 2002)
# Legend:
# Test in all cases: Test B preemergence/postemergence greenhouse plant response rating 0 to 10
# barley = format: in vivo, Hordeum vulgare; conditions: for Plant response rating, Barley: 0 to 10 scale
# Procedure, shortened: (§1)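 Postemergence treatment of plants two to eighteen cm tall ran alongside preemergence treatment of planted seed, each using compound in a non-phytotoxic solvent.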
# barnyardgrass = format: in vivo, Echinochloa crus-galli; conditions: for Plant response rating, Barnyardgrass: 0 to 10 scale
# Procedure, shortened: as §1
# bedstraw = format: in vivo, Galium aparine; conditions: for Plant response rating, Bedstraw: 0 to 10 scale
# Procedure, shortened: as §1
# blackgrass = format: in vivo, Alopecurus myosuroides; conditions: for Plant response rating, Blackgrass: 0 to 10 scale
# Procedure, shortened: as §1
# cheatgrass = format: in vivo, Bromus secalinus; conditions: for Plant response rating, Cheatgrass: 0 to 10 scale
# Procedure, shortened: as §1
# chickweed = format: in vivo, Stellaria media; conditions: for Plant response rating, Chickweed: 0 to 10 scale
# Procedure, shortened: as §1
# cocklebur = format: in vivo, Xanthium pensylvanicum; conditions: for Plant response rating, Cocklebur: 0 to 10 scale
# Procedure, shortened: as §1
# corn = format: in vivo, Zea mays; conditions: for Plant response rating, Corn: 0 to 10 scale
# Procedure, shortened: as §1
# cotton = format: in vivo, Gossypium hirsutum; conditions: for Plant response rating, Cotton: 0 to 10 scale
# Procedure, shortened: as §1
# crabgrass = format: in vivo, Digitaria spp.; conditions: for Plant response rating, Crabgrass: 0 to 10 scale
# Procedure, shortened: as §1
# giant foxtail = format: in vivo, Setaria faberii; conditions: for Plant response rating, Giant foxtail: 0 to 10 scale
# Procedure, shortened: as §1
# lambsquarters = format: in vivo, Chenopodium album; conditions: for Plant response rating, Lambsquarter: 0 to 10 scale
# Procedure, shortened: as §1
# morningglory = format: in vivo, Ipomoea hederacea; conditions: for Plant response rating, Morningglory: 0 to 10 scale
# Procedure, shortened: as §1
# rape = format: in vivo, Brassica napus; conditions: for Plant response rating, Rape: 0 to 10 scale
# Procedure, shortened: as §1
# rice = format: in vivo, Oryza sativa; conditions: for Plant response rating, Rice: 0 to 10 scale
# Procedure, shortened: as §1
# sorghum = format: in vivo, Sorghum bicolor; conditions: for Plant response rating, Sorghum: 0 to 10 scale
# Procedure, shortened: as §1
# soybean = format: in vivo, Glycine max; conditions: for Plant response rating, Soybean: 0 to 10 scale
# Procedure, shortened: as §1
# sugar beet = format: in vivo, Beta vulgaris; conditions: for Plant response rating, Sugar beet: 0 to 10 scale
# Procedure, shortened: as §1
# velvetleaf = format: in vivo, Abutilon theophrasti; conditions: for Plant response rating, Velvetleaf: 0 to 10 scale
# Procedure, shortened: as §1
# wheat = format: in vivo, Triticum aestivum; conditions: for Plant response rating, Wheat: 0 to 10 scale
# Procedure, shortened: as §1
# wild buckwheat = format: in vivo, Polygonum convolvulus; conditions: for Plant response rating, Wild buckwheat: 0 to 10 scale
# Procedure, shortened: as §1
# wild oat = format: in vivo, Avena fatua; conditions: for Plant response rating, Wild oat: 0 to 10 scale
# Procedure, shortened: as §1
# purple nutsedge = format: in vivo, Cyperus rotundus; conditions: for Plant response rating, Nutsedge: 0 to 10 scale
# Procedure, shortened: as §1
smiles,measurement,setting,value
COCOc1cc(-c2nn3c(c2Br)CCCC3)c(F)cc1Cl [Compound 65],"Plant response rating, Barley","barley; POSTEMERGENCE, Rate 50 g/ha",3
same,"Plant response rating, Barley","barley; PREEMERGENCE, Rate 50 g/ha",0
same,"Plant response rating (0 to 10 scale), Barley","barley; PREEMERGENCE, Rate 200 g/ha",2
same,"Plant response rating, Barley","barley; Rate 200 g/ha, POSTEMERGENCE",6
same,"Plant response rating, Barnyardgrass","barnyardgrass; POSTEMERGENCE, Rate 50 g/ha",7
same,"Plant response rating, Barnyardgrass","barnyardgrass; PREEMERGENCE, Rate 50 g/ha",4
same,"Plant response rating (0 to 10 scale), Barnyardgrass","barnyardgrass; PREEMERGENCE, Rate 200 g/ha",9
same,"Plant response rating, Barnyardgrass","barnyardgrass; Rate 200 g/ha, POSTEMERGENCE",9
same,"Plant response rating, Bedstraw","bedstraw; POSTEMERGENCE, Rate 50 g/ha",10
same,"Plant response rating, Bedstraw","bedstraw; PREEMERGENCE, Rate 50 g/ha",5
same,"Plant response rating (0 to 10 scale), Bedstraw","bedstraw; PREEMERGENCE, Rate 200 g/ha",5
same,"Plant response rating, Bedstraw","bedstraw; Rate 200 g/ha, POSTEMERGENCE",10
same,"Plant response rating, Blackgrass","blackgrass; POSTEMERGENCE, Rate 50 g/ha",7
same,"Plant response rating, Blackgrass","blackgrass; PREEMERGENCE, Rate 50 g/ha",7
same,"Plant response rating (0 to 10 scale), Blackgrass","blackgrass; PREEMERGENCE, Rate 200 g/ha",7
same,"Plant response rating, Blackgrass","blackgrass; Rate 200 g/ha, POSTEMERGENCE",7
same,"Plant response rating, Cheatgrass","cheatgrass; POSTEMERGENCE, Rate 50 g/ha",3
same,"Plant response rating, Cheatgrass","cheatgrass; PREEMERGENCE, Rate 50 g/ha",2
same,"Plant response rating (0 to 10 scale), Cheatgrass","cheatgrass; PREEMERGENCE, Rate 200 g/ha",4
same,"Plant response rating, Cheatgrass","cheatgrass; Rate 200 g/ha, POSTEMERGENCE",6
same,"Plant response rating, Chickweed","chickweed; POSTEMERGENCE, Rate 50 g/ha",5
same,"Plant response rating, Chickweed","chickweed; PREEMERGENCE, Rate 50 g/ha",1
same,"Plant response rating (0 to 10 scale), Chickweed","chickweed; PREEMERGENCE, Rate 200 g/ha",3
same,"Plant response rating, Chickweed","chickweed; Rate 200 g/ha, POSTEMERGENCE",9
same,"Plant response rating, Cocklebur","cocklebur; POSTEMERGENCE, Rate 50 g/ha",10
same,"Plant response rating, Cocklebur","cocklebur; PREEMERGENCE, Rate 50 g/ha",0
same,"Plant response rating (0 to 10 scale), Cocklebur","cocklebur; PREEMERGENCE, Rate 200 g/ha",4
same,"Plant response rating, Cocklebur","cocklebur; Rate 200 g/ha, POSTEMERGENCE",10
same,"Plant response rating, Corn","corn; POSTEMERGENCE, Rate 50 g/ha",4
same,"Plant response rating, Corn","corn; PREEMERGENCE, Rate 50 g/ha",0
same,"Plant response rating (0 to 10 scale), Corn","corn; PREEMERGENCE, Rate 200 g/ha",4
same,"Plant response rating, Corn","corn; Rate 200 g/ha, POSTEMERGENCE",5
same,"Plant response rating, Cotton","cotton; POSTEMERGENCE, Rate 50 g/ha",10
same,"Plant response rating, Cotton","cotton; PREEMERGENCE, Rate 50 g/ha",0
same,"Plant response rating (0 to 10 scale), Cotton","cotton; PREEMERGENCE, Rate 200 g/ha",4
same,"Plant response rating, Cotton","cotton; Rate 200 g/ha, POSTEMERGENCE",10
same,"Plant response rating, Crabgrass","crabgrass; POSTEMERGENCE, Rate 50 g/ha",4
same,"Plant response rating, Crabgrass","crabgrass; PREEMERGENCE, Rate 50 g/ha",2
same,"Plant response rating (0 to 10 scale), Crabgrass","crabgrass; PREEMERGENCE, Rate 200 g/ha",2
same,"Plant response rating, Crabgrass","crabgrass; Rate 200 g/ha, POSTEMERGENCE",7
same,"Plant response rating, Giant foxtail","giant foxtail; POSTEMERGENCE, Rate 50 g/ha",5
same,"Plant response rating, Giant foxtail","giant foxtail; PREEMERGENCE, Rate 50 g/ha",6
same,"Plant response rating (0 to 10 scale), Giant foxtail","giant foxtail; PREEMERGENCE, Rate 200 g/ha",10
same,"Plant response rating, Giant foxtail","giant foxtail; Rate 200 g/ha, POSTEMERGENCE",8
same,"Plant response rating, Lambsquarter","lambsquarters; POSTEMERGENCE, Rate 50 g/ha",10
same,"Plant response rating, Lambsquarter","lambsquarters; PREEMERGENCE, Rate 50 g/ha",10
same,"Plant response rating (0 to 10 scale), Lambsquarter","lambsquarters; PREEMERGENCE, Rate 200 g/ha",10
same,"Plant response rating, Lambsquarter","lambsquarters; Rate 200 g/ha, POSTEMERGENCE",10
same,"Plant response rating, Morningglory","morningglory; POSTEMERGENCE, Rate 50 g/ha",10
same,"Plant response rating, Morningglory","morningglory; PREEMERGENCE, Rate 50 g/ha",0
same,"Plant response rating (0 to 10 scale), Morningglory","morningglory; PREEMERGENCE, Rate 200 g/ha",2
same,"Plant response rating, Morningglory","morningglory; Rate 200 g/ha, POSTEMERGENCE",10
same,"Plant response rating, Rape","rape; POSTEMERGENCE, Rate 50 g/ha",8
same,"Plant response rating, Rape","rape; PREEMERGENCE, Rate 50 g/ha",0
same,"Plant response rating (0 to 10 scale), Rape","rape; PREEMERGENCE, Rate 200 g/ha",10
same,"Plant response rating, Rape","rape; Rate 200 g/ha, POSTEMERGENCE",9
same,"Plant response rating, Rice","rice; POSTEMERGENCE, Rate 50 g/ha",5
same,"Plant response rating, Rice","rice; PREEMERGENCE, Rate 50 g/ha",1
same,"Plant response rating (0 to 10 scale), Rice","rice; PREEMERGENCE, Rate 200 g/ha",3
same,"Plant response rating, Rice","rice; Rate 200 g/ha, POSTEMERGENCE",6
same,"Plant response rating, Sorghum","sorghum; POSTEMERGENCE, Rate 50 g/ha",6
same,"Plant response rating, Sorghum","sorghum; PREEMERGENCE, Rate 50 g/ha",0
same,"Plant response rating (0 to 10 scale), Sorghum","sorghum; PREEMERGENCE, Rate 200 g/ha",0
same,"Plant response rating, Sorghum","sorghum; Rate 200 g/ha, POSTEMERGENCE",7
same,"Plant response rating, Soybean","soybean; PREEMERGENCE, Rate 50 g/ha",0
same,"Plant response rating (0 to 10 scale), Soybean","soybean; PREEMERGENCE, Rate 200 g/ha",2
same,"Plant response rating, Soybean","soybean; Rate 200 g/ha, POSTEMERGENCE",8
same,"Plant response rating, Sugar beet","sugar beet; POSTEMERGENCE, Rate 50 g/ha",10
same,"Plant response rating, Sugar beet","sugar beet; PREEMERGENCE, Rate 50 g/ha",9
same,"Plant response rating (0 to 10 scale), Sugar beet","sugar beet; PREEMERGENCE, Rate 200 g/ha",10
same,"Plant response rating, Sugar beet","sugar beet; Rate 200 g/ha, POSTEMERGENCE",10
same,"Plant response rating, Velvetleaf","velvetleaf; POSTEMERGENCE, Rate 50 g/ha",10
same,"Plant response rating, Velvetleaf","velvetleaf; PREEMERGENCE, Rate 50 g/ha",9
same,"Plant response rating (0 to 10 scale), Velvetleaf","velvetleaf; PREEMERGENCE, Rate 200 g/ha",9
same,"Plant response rating, Velvetleaf","velvetleaf; Rate 200 g/ha, POSTEMERGENCE",10
same,"Plant response rating, Wheat","wheat; POSTEMERGENCE, Rate 50 g/ha",6
same,"Plant response rating, Wheat","wheat; PREEMERGENCE, Rate 50 g/ha",0
same,"Plant response rating (0 to 10 scale), Wheat","wheat; PREEMERGENCE, Rate 200 g/ha",5
same,"Plant response rating, Wheat","wheat; Rate 200 g/ha, POSTEMERGENCE",5
same,"Plant response rating, Wild buckwheat","wild buckwheat; POSTEMERGENCE, Rate 50 g/ha",10
same,"Plant response rating, Wild buckwheat","wild buckwheat; PREEMERGENCE, Rate 50 g/ha",10
same,"Plant response rating (0 to 10 scale), Wild buckwheat","wild buckwheat; PREEMERGENCE, Rate 200 g/ha",10
same,"Plant response rating, Wild buckwheat","wild buckwheat; Rate 200 g/ha, POSTEMERGENCE",10
same,"Plant response rating, Wild oat","wild oat; POSTEMERGENCE, Rate 50 g/ha",7
same,"Plant response rating, Wild oat","wild oat; PREEMERGENCE, Rate 50 g/ha",2
same,"Plant response rating (0 to 10 scale), Wild oat","wild oat; PREEMERGENCE, Rate 200 g/ha",8
same,"Plant response rating, Wild oat","wild oat; Rate 200 g/ha, POSTEMERGENCE",7
same,"Plant response rating, Nutsedge","purple nutsedge; POSTEMERGENCE, Rate 50 g/ha",3
same,"Plant response rating, Nutsedge","purple nutsedge; PREEMERGENCE, Rate 50 g/ha",0
same,"Plant response rating (0 to 10 scale), Nutsedge","purple nutsedge; PREEMERGENCE, Rate 200 g/ha",0
same,"Plant response rating, Nutsedge","purple nutsedge; Rate 200 g/ha, POSTEMERGENCE",4
